In US9062041B2 (Bayer Intellectual Property GmbH, priority 2011, dated 2015):

What was measured:
Assay type in all cases: cell-based
[1] = molecular target: EP2 subtype of the human PGE2 receptor (Homo sapiens, UniProt P43116); experiment: cAMP antagonism test on the human EP2 receptor (HTRF cAMP detection); conditions: hEP2 receptor, read-out: Antagonism hEP2 IC50
Description: 1. Detection of Antagonism to the Human Prostaglandin E2 (Subtype EP2) Receptor Signal
The binding of PGE2 to the EP2 subtype of the human PGE2 receptor induces the activation of membrane-located adenylate cyclases and leads to the formation of cAMP. In the presence of the phosphodiesterase inhibitor IBMX, the cAMP accumulated owing to this stimulation and released by cell lysis is used in a competitive detection method. In this test, the cAMP present in the lysate competes with a fluorescence-labelled cAMP (cAMP-d2) for binding to an Eu cryptate-labelled anti-cAMP antibody.
(§1) In the absence of cellular cAMP, a maximal signal is produced, which is attributable to the binding of this cAMP-d2 molecule to the antibody. After excitation of the […] at 337 nm, there is a fluorescence resonance energy transfer (FRET) to the Eu cryptate molecules of the anti-cAMP antibody (labelled therewith), followed by a long-lasting emission signal at 665 nm (and at […]). Both signals are measured in a suitable measurement instrument with a time delay, i.e. after decay of the background fluorescence. Any increase in the low FRET signal caused by prostaglandin E2 administration (measured as well ratio change=emission665 nm/emission620 nm*10000) indicates the action of antagonists.
1.2.1. Test for Antagonism (Data Per Well of a 384-Well Plate):
To a test plate with the substance solutions already added (0.05 μl; 100% DMSO, concentration range from 0.8 nM-16.5 μM) were added 4 μl of a cAMP-d2/cell suspension (625000 cells/ml). After a 20-minute preincubation at room temperature (RT), 2 μl of a 3×PGE2 solution (1.5 nM, in PBS-IBMX) were added and incubated in the presence of the agonist for a further 60 mins at RT (volume: ˜6 μl). Next the reaction was stopped by addition of 2 μl of lysis buffer and incubated for a further 20 mins at RT before the actual measurement (volume: ˜8 μl).

[2] = molecular target: EP4 subtype of the human PGE2 receptor (Homo sapiens, UniProt P35408); experiment: cAMP antagonism test on the human EP4 receptor (HTRF cAMP detection); conditions: selectivity towards hEP4, IC50 measured by cAMP antagonism test
Description: 2. Detection of Antagonism to the Human Prostaglandin E2 (Subtype EP4) Receptor Signal
The binding of PGE2 to the EP4 subtype of the human PGE2 receptor induces the activation of membrane-located adenylate cyclases and leads to the formation of cAMP. In the presence of the phosphodiesterase inhibitor IBMX, the cAMP accumulated owing to this stimulation and released by cell lysis is used in a competitive detection method. In this test, the cAMP present in the lysate competes with a fluorescence-labelled cAMP (cAMP-d2) for binding to an Eu cryptate-labelled anti-cAMP antibody.
as §1, with “cAMP” for “cAMP,”
2.2.1. Test for Antagonism (Data Per Well of a 384-Well Plate):
To a test plate with the substance solutions already added (0.05 μl; 100% DMSO, concentration range from 0.8 nM-16.5 μM) were added 4 μl of a cAMP-d2/cell suspension (312500 cells/ml). After a 20-minute preincubation at room temperature (RT), 2 μl of a 3×PGE2 solution (0.3 nM, in PBS-IBMX) were added and incubated in the presence of the agonist for a further 60 mins at RT (volume: ˜6 μl). Next the reaction was stopped by addition of 2 μl of lysis buffer and incubated for a further 20 mins at RT before the actual measurement (volume: ˜8 μl).

human PGD receptor = molecular target: T1, human PGD receptor (Homo sapiens, UniProt Q13258); experiment: cAMP antagonism test on the human prostaglandin D receptor (HTRF cAMP detection); conditions: selectivity towards hDP, IC50 measured by cAMP antagonism test
T1 sequence (Q13258 1-359): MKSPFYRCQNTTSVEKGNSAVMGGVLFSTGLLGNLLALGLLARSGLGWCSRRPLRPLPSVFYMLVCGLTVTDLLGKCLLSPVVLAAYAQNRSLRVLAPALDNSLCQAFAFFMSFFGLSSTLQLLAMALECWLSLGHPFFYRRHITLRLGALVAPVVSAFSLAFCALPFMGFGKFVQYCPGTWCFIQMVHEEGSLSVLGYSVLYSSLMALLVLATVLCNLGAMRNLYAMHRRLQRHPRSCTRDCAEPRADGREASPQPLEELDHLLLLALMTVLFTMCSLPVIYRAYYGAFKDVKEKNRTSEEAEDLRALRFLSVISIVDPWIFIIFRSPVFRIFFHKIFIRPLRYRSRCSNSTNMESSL
Description: 3. Detection of Antagonism to the Human Prostaglandin D Receptor Signal
The binding of prostaglandin D2 to the human PGD receptor induces the activation of membrane-located adenylate cyclases and leads to the formation of cAMP. In the presence of the phosphodiesterase inhibitor IBMX, the cAMP accumulated owing to this stimulation and released by cell lysis is used in a competitive detection method. In this test, the cAMP present in the lysate competes with a fluorescence-labelled cAMP (cAMP-d2) for binding to an Eu cryptate-labelled anti-cAMP antibody.
as §1
3.2.1. Test for Antagonism (Data Per Well of a 384-Well Plate):
To a test plate with the substance solutions already added (0.05 μl; 100% DMSO, concentration range from 0.8 nM-16.5 μM) were added 4 μl of a cAMP-d2/cell suspension (625000 cells/ml). After a 20-minute preincubation at room temperature (RT), 2 μl of a 3×PGD2 solution (6 nM, in PBS-IBMX) were added and incubated in the presence of the agonist for a further 30 mins at RT (volume: ˜6 μl). Next the reaction was stopped by addition of 2 μl of lysis buffer and incubated for a further 20 mins at RT before the actual measurement (volume: ˜8 μl).

Sequence of EP4 subtype of the human PGE2 receptor (P35408 whole entry): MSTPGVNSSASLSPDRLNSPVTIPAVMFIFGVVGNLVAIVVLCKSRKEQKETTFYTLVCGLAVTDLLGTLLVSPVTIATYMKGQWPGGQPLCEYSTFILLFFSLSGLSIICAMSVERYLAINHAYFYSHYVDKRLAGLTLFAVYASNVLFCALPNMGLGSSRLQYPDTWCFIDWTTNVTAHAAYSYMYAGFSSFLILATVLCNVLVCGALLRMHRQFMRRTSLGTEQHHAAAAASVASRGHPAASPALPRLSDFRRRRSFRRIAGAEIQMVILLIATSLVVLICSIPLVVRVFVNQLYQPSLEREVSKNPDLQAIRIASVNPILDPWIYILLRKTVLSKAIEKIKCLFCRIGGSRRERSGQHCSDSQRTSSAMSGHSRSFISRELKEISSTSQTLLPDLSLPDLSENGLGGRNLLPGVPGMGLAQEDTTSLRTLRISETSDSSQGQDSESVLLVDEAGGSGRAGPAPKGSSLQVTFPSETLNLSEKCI
Sequence of EP2 subtype of the human PGE2 receptor (P43116 whole entry): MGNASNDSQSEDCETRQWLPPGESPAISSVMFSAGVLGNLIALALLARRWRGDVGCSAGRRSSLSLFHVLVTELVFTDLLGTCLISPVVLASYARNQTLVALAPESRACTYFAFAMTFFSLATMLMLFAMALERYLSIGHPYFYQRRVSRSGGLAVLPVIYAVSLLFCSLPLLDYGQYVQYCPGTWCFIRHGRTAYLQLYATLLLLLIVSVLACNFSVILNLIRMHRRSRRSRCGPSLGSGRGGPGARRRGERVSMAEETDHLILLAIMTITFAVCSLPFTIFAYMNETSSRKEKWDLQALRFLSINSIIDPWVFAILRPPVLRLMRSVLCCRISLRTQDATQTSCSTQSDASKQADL

Structure (SMILES) | IC50 [1] | Selectivity hEP2/hEP4 [2] | Selectivity hEP2/hDP (human PGD receptor)
O=C(NCCOCC1CC1)c1ccc2nn(CC3CCN(C(=O)c4ccc(-c5ccc(F)cc5)cc4)CC3)cc2c1OC(F)F [Example 231, N-[2-(cyclopropylmethoxy)ethyl]-4-(difluoromethoxy)-2-({1-[(4′-fluorobiphenyl-4-yl)carbonyl]piperidin-4-yl}methyl)-2H-indazol-5-carboxamide] | 13.2 nM | xxx (xxx > 100) | xxx (xxx > 100)
Cc1c(C(=O)NCC2COCCO2)ccc2nn(CC3CN(C(=O)c4ccc(Cl)cc4)C3)cc12 (single isomer, unassigned) [Example 142, (R or S)-2-{[1-(4-chlorobenzoyl)azetidin-3-yl]methyl}-N-(1,4-dioxan-2-ylmethyl)-4-methyl-2H-indazol-5-carboxamide] | 713 nM | xx (xx: 10-100) | xx (xx: 10-100)
Cc1cc2nn(CC3CN(C(=O)c4ccc(Cl)cc4)C3)cc2cc1C(=O)NCCN1CCOCC1 [Example 278, 2-{[1-(4-chlorobenzoyl)azetidin-3-yl]methyl}-6-methyl-N-(2-morpholinoethyl)-2H-indazol-5-carboxamide] | 104 nM | xxx (xxx > 100) | xxx (xxx > 100)
Cc1c(C(=O)NCC(F)(F)F)ccc2nn(CC3CCN(C(=O)c4ccc(Oc5cccc(C(F)(F)F)c5)cc4)CC3)cc12 [Example 308, 4-methyl-N-(2,2,2-trifluoroethyl)-2-[(1-{4-[3-(trifluoromethyl)phenoxy]-benzoyl}piperidin-4-yl)methyl]-2H-indazol-5-carboxamide] | 22.2 nM | xxx (xxx > 100) | xxx (xxx > 100)
COC(C)CNC(=O)c1cc2cn(CC3CN(C(=O)c4ccc(OC(F)(F)F)cc4)C3)nc2cc1C (racemic) [Example 193, (+/−)-N-(2-methoxypropyl)-6-methyl-2-({1-[4-(trifluoromethoxy)benzoyl]-azetidin-3-yl}methyl)-2H-indazol-5-carboxamide] | 145 nM | xxx (xxx > 100) | xxx (xxx > 100)
COCCNC(=O)c1ccc2nn(CC3CN(C(=O)c4ccc(C(F)(F)F)c(F)c4)C3)cc2c1C [Example 122, 2-({1-[3-fluoro-4-(trifluoromethyl)benzoyl]azetidin-3-yl}methyl)-N-(2-methoxy-ethyl)-4-methyl-2H-indazol-5-carboxamide] | 28.6 nM | xxx (xxx > 100) | xxx (xxx > 100)
Cc1cc2nn(CC3CCN(C(=O)c4ccc(C(F)(F)F)cc4F)CC3)cc2cc1C(=O)NCCN1CCOCC1 [Example 80, 2-({1-[2-fluoro-4-(trifluoromethyl)-benzoyl]piperidin-4-yl}-methyl)-6-methyl-N-(2-morpholinoethyl)-2H-indazol-5-carboxamide] | 85.9 nM | xxx (xxx > 100) | xxx (xxx > 100)

The remaining lines, values ahead:

IC50 [1] | Selectivity hEP2/hEP4 [2] | Selectivity hEP2/hDP (human PGD receptor) | Structure (SMILES)
8.09 nM | xxx (xxx > 100) | xxx (xxx > 100) | COCCNC(=O)c1ccc2nn(CC3CCN(C(=O)c4ccc(C5CC5)cc4)CC3)cc2c1OC(F)F [Example 228, 2-{[1-(4-cyclopropylbenzoyl)piperidin-4-yl]methyl}-4-(difluoromethoxy)-N-(2-methoxyethyl)-2H-indazol-5-carboxamide]
7.54 nM | xxx (xxx > 100) | xxx (xxx > 100) | COCCNC(=O)c1ccc2nn(CC3CCN(C(=O)c4ccc(SC(F)(F)F)cc4)CC3)cc2c1OC [Example 269, 4-methoxy-N-(2-methoxyethyl)-2-[(1-{4-[(trifluoromethyl)sulphanyl]benzoyl}-piperidin-4-yl)methyl]-2H-indazol-5-carboxamide]
40.7 nM | xxx (xxx > 100) | xxx (xxx > 100) | COCCNC(=O)c1ccc2nn(CC3CCN(C(=O)c4ccc(-c5ccc(OC)cn5)cc4)CC3)cc2c1C [Example 373, N-(2-methoxyethyl)-2-({1-[4-(5-methoxypyridin-2-yl)benzoyl]piperidin-4-yl}-methyl)-4-methyl-2H-indazol-5-carboxamide]
5.78 nM | xxx (xxx > 100) | xxx (xxx > 100) | COCCNC(=O)c1ccc2nn(CC3CCN(C(=O)c4ccc(-c5ccc(Cl)cc5F)cc4)CC3)cc2c1C [Example 383, 2-({1-[(4′-chloro-2′-fluorobiphenyl-4-yl)carbonyl]piperidin-4-yl}methyl)-N-(2-methoxyethyl)-4-methyl-2H-indazol-5-carboxamide]
18.2 nM | xxx (xxx > 100) | xxx (xxx > 100) | Cc1c(C(=O)NCCS(C)(=O)=O)ccc2nn(CC3CCN(C(=O)c4ccc(-c5ccc(F)cc5F)cc4)CC3)cc12 [Example 398, 2-({1-[(2′,4′-difluorobiphenyl-4-yl)carbonyl]piperidin-4-yl}methyl)-N-(2-mesylethyl)-4-methyl-2H-indazol-5-carboxamide]
5.35 nM | xxx (xxx > 100) | xxx (xxx > 100) | COCCNC(=O)c1ccc2nn(CC3CCN(C(=O)c4ccc(-c5ccc(F)cc5OC)cc4)CC3)cc2c1C [Example 380, 2-({1-[(4′-fluoro-2′-methoxybiphenyl-4-yl)carbonyl]piperidin-4-yl}methyl)-N-(2-methoxyethyl)-4-methyl-2H-indazol-5-carboxamide]
